The subject of series [1] is zebrafish embryos. Type of series: in vivo. The conditions noted are these: zebrafish, in vivo. The procedure: According to one example of the whole animal-based screening methods of the invention, 1-2 hour old zebrafish embryos are arrayed in the wells of 96-well plates, three embryos per well. A chemical library, which is comprised of tens of thousands of diverse small molecules, is then pin-transferred into the wells at a final concentration of ˜2 to 10 uM. Embryos are observed over the course of next 24-48 hours and scored under a dissecting microscope for phenotype consistent with loss of BMP signaling (dorsalized embryos, FIG. 1) or with the loss of nodal signaling (cyclopia, FIG. 2).
Small molecule screening in zebrafish was performed as previously described (Peterson et al., Nat. Biotechnol. 22:595-599, 2004) with several modifications. Pairs of wild-type zebrafish were mated, and newly-fertilized eggs were arrayed in triplicate in 96-well plates containing E3 buffer. At 4 hours post fertilization (hpf), compounds were added to wells at 5-10 μM. Embryos were incubated at 28.5° C., and gross morphology of embryos was examined at 12, 24, and 48 hpf for dorsalization or ventralization of embryonic axis, as previously described (Mullins et al., Development 123:81-93, 1996). In total, 7,570 compounds were screened, including synthetic screening compounds (Chembridge Corporation, 5,580 small molecules) and known bioactive compounds (Microsource Discovery Systems, 1,840 small molecules and Sigma-Aldrich, 150 small molecules). For follow up studies, Compound C/Dorsomorphin and Ara-A (adenine 9-β-D-arabinofurano-side) were purchased from Sigma (St. Louis, Mo.), and C75 was purchased from EMD Biosciences (San Diego, Calif.).

In series [2] the test system is hepcidin (HAMP) and Id1 mRNA. Put plainly: Hepcidin and Id1 mRNA qRT-PCR in Hep3B cells. It is filed as cell-based, human. The procedure:
Quantitative RT-PCR was performed for mRNA encoding Id1 or human hepcidin (HAMP) as previously described (Babitt et al., Nat. Genet. 38:531-539, 2006; Yu et al., J. Biol. Chem. 280:24443-24450, 2005), and normalized to 18S ribosomal RNA (rRNA) or β-actin mRNA levels.
(In general: Real-time PCR tracks product formation cycle by cycle.)

Series [3] has as its system zebrafish embryos. It is filed as in vivo. Particulars: for % Dorsalized / Dorsalized, number of embryos / Early lethality, number of embryos / Total survivors: treatment at 3 hpf; for phenotype: 8 ng of either morpholino alone, 24 hpf.
In series [4] the test system is BMP-mediated SMAD1/5/8 phosphorylation. Put plainly: Immunoblot of BMP-induced SMAD1/5/8 phosphorylation in PASMCs. It is filed as cell-based, murine. Particulars: PASMCs, noggin 100-200 ng/ml pretreatment 30 minutes. The procedure: Wild-type and BMPR-II-deficient PASMC were isolated as previously described (Yu et al., J. Biol. Chem. 280:24443-24450, 2005), and cultured in RPMI medium (Invitrogen) supplemented with 10% FBS. C2C12 cells (American Type Culture Collection, Manassas, Va.) were cultured in DMEM supplemented with glutamine and 10% FBS. HepG2 cells and Hep3B cells (ATCC) were cultured in Minimal Essential Alpha Medium with L-glutamine (α-MEM, Invitrogen) containing 10% FBS. For studies of SMAD activation in vitro, PASMC were incubated in 0.5% FCS RPMI for 24 hours, followed by preincubation with drug compounds, noggin, or vehicle for 30 minutes, followed the addition of recombinant BMPs 2, 4, 6, or 7, or TGF-β1 or Activin A (R&D Systems, Minneapolis, Minn.) for 30 minutes.
Cell extracts or tissues were mechanically homogenized in SDS-lysis buffer (62.5 mM Tris-HCl (pH 6.8), 2% SDS, 10% glycerol, 50 mM DTT, 0.01% bromophenol blue); separated by SDS-PAGE; immunoblotted with anti-phospho-SMAD1/5/8, anti-phospho-SMAD2 (Cell Signaling, Beverly, Mass.), or anti-α-tubulin (Upstate/Millipore, Billerica, Mass.) Abs; and visualized using ECL Plus (GE Healthcare, Piscataway, N.J.). Levels of immunoreactive proteins were quantitated by ImageQuant software on a Storm phosphorimager (GE Healthcare).
The statistical significance of compared measurements was measured using the student's two-tailed T-test or one-way ANOVA with Bonferroni correction. Hill plot analysis of Compound C/Dorsomorphin inhibition of SMAD1/5/8 phosphorylation was performed using GraFit software (Erithacus Software, Surrey, England).
In general terms: Immunoblotting shows a protein as a band on a membrane.

For the next series, the system named is MAPK p38. Briefly: Immunoblot of BMP4-mediated MAPK p38 phosphorylation in PASMCs. It is filed as cell-based, murine. The conditions noted are these: noggin 100-200 ng/ml pretreatment 30 minutes.

Entries after “also recorded” stand apart in the source; their conditions may differ. Like-named read-outs stand apart in the source and are kept apart here.

As for `Nc1ncnc2c1ncn2[C@@H]1O[C@H](CO)[C@@H](O)[C@@H]1O` [Ara-A, adenine 9-β-D-arabinofurano-side, reference compound], in the series on zebrafish embryos [1], the “dorsalization by structurally-unrelated inhibitors of AMPK activity” value was “did not dorsalize zebrafish embryos”; the “toxicity of structurally-unrelated inhibitors of AMPK activity” value is “non-specific toxicity such as developmental delay and death”. In addition, in series [2] (Ara-A 250 μM 30 minutes before BMP4 20 ng/ml), the “effect on BMP4-induced hepcidin mRNA expression” value was “did not impair; also recorded: did not significantly affect”. Besides, the “lowering of baseline hepcidin expression” value in series [2] (Ara-A 250 μM alone) is listed as 40%.
Consider `C=C1C(=O)OC(CCCCCCCC)C1C(=O)O` (stereo not shown) [Compound C75, reference compound], for which, in the series with zebrafish embryos [1], the “dorsalization by structurally-unrelated inhibitors of AMPK activity” value was “did not dorsalize zebrafish embryos”. The “toxicity of structurally-unrelated inhibitors of AMPK activity” value in the series on zebrafish embryos [1] is “non-specific toxicity such as developmental delay and death”. The “% Dorsalized” value in the series on zebrafish embryos [3] (C75 4 μM), with zebrafish embryos [3] (C75 20 μM), in the series with zebrafish embryos [3] (C75 40 μM), with zebrafish embryos [3] (C75 100 μM), with zebrafish embryos [3] (C75 200 μM) and in the series on zebrafish embryos [3] (C75 400 μM) was 0% throughout. For the same molecule, the “Dorsalized, number of embryos” value in the series with zebrafish embryos [3] (C75 4 μM), in the series with zebrafish embryos [3] (C75 20 μM), with zebrafish embryos [3] (C75 40 μM), in the series on zebrafish embryos [3] (C75 100 μM), in the series with zebrafish embryos [3] (C75 200 μM) and with zebrafish embryos [3] (C75 400 μM) was 0 throughout. In addition, the “Early lethality, number of embryos” value in the series with zebrafish embryos [3] (C75 4 μM) is 0; in the series with zebrafish embryos [3] (C75 20 μM), 0; in the series on zebrafish embryos [3] (C75 40 μM) it was 0; with zebrafish embryos [3] (C75 100 μM) it was 20; in the series on zebrafish embryos [3] (C75 200 μM), 40; with zebrafish embryos [3] (C75 400 μM), 40. Moreover, the Total survivors in the series with zebrafish embryos [3] (C75 4 μM) amounted to 20; with zebrafish embryos [3] (C75 20 μM), 40; in the series on zebrafish embryos [3] (C75 40 μM), 40; with zebrafish embryos [3] (C75 100 μM) it was 0; with zebrafish embryos [3] (C75 200 μM), 0; in the series on zebrafish embryos [3] (C75 400 μM) it was 0. Besides, the dorsalization phenotype result in the series on zebrafish embryos [3] (C75, any concentration tested (1-100 μg/ml), from 3 hpf) is reported as “without evidence of dorsalization”.
In the case of `NC(=O)c1ccc(-c2nc(-c3ccc4c(c3)OCO4)c(-c3ccccn3)[nH]2)cc1` [SB-431542, reference compound], the zebrafish embryo phenotype result in the series with zebrafish embryos [3] (known specific inhibitor of the TGF-β/activin/nodal branch) is “cyclopia, but not dorsalization”.
Turning to “αA: splice-targeting morpholino against zebrafish AMPK α-subunit ortholog αA (CACCCTGGAAAGTT TTACCTTTGAC) (antisense CACCCTGGAAAGTTTTACCTTTGAC; all phosphorodiamidate morpholino (PMO)) [reference compound]”, the phenotype result in the series with zebrafish embryos [3] is reported as “did not exhibit any phenotype”.
As for “αB: splice-targeting morpholino against zebrafish AMPK α-subunit ortholog αB (TAAATGAACA GACTTAACTCTTCAC) (antisense TAAATGAACAGACTTAACTCTTCAC; all phosphorodiamidate morpholino (PMO)) [reference compound]”, the phenotype entry with zebrafish embryos [3] is recorded as “did not exhibit any phenotype”.

B1: noggin: soluble BMP antagonist; preferential inhibitor of BMP2 and BMP4 activity (protein, UniProt Q13253 28-232, looked up)
Noggin: QHYLHIRPAPSDNLPLVDLIEHPDPIFDPKEKDLNETLLRSLLGGHYDPGFMATSPPEDRPGGGGGAAGGAEDLAELDQLLRQRPSGAMPSEIKGLEFSEGLAQGKKQRLSKKLRRKLQMWLWSQTFCPVLYAWNDLGSRFWPRYVKVGSCFSKRSCSVPEGMVCKPSKSVHLTVLRWRCQRRGGQRCGWIPIQYPIISECKCSC
Take B1: in series [4], the “effect on BMP4-mediated phosphorylation of SMAD1/5/8” value is reported as “inhibited”. In the series with MAPK p38, the “effect on BMP4-mediated phosphorylation of MAPK p38” value was “inhibited”.

B2: BMP4: recombinant bone morphogenetic protein ligand (R&D Systems) (protein, UniProt P12644 293-408, looked up)
Bone morphogenetic protein 4: SPKHHSQRARKKNKNCRRHSLYVDFSDVGWNDWIVAPPGYQAFYCHGDCPFPLADHLNSTNHAIVQTLVNSVNSSIPKACCVPTELSAISMLYLDEYDKVVLKNYQEMVVEGCGCR
Regarding B2, the “increase in hepcidin mRNA” value in series [2] (BMP4 20 ng/ml, four hours) amounted to 35 fold.

The record behind these values is patent publication US20100093760A1, “METHODS FOR IDENTIFYING COMPOUNDS THAT MODULATE CELL SIGNALING AND METHODS EMPLOYING SUCH COMPOUNDS” (The General Hospital Corporation, priority 2006, published 2010).
